Experimental data published in patent US9012648B2, “Haptens of risperidone and paliperidone” (Janssen Pharmaceutica NV, priority 2012, dated 2015).
Several values for one entry are separate records, joined by “and”; a condition that tells them apart may be missing. Identical values can stand only once.

Legend:
[1] = ELISA reactivity of hybridoma supernatants, Ag = Bt-Compound#1 (second TABLE 1); type: binding, mouse
[2] = test system: hybridoma subclone 2A5; assay: Competition ELISA, hybridoma subclone 2A5 supernatant (FIG. 3); type: binding, mouse
Protocol: Supernatants were also tested by competition ELISA to determine if the signals were specific to either risperidone or paliperidone. […] In this competitive format as show in FIG. 4, a low level of analyte (risperidone) results in high signal, whereas a high level of analyte (risperidone) results in low signal. The amount of risperidone in the sample can be calculated from the loss of fluorescence compared to a control sample with no drug present.

[3] = Dilution 10800, duplicate wells

| Compound | ELISA reactivity ([1]; Dilution 400, duplicate wells) | ELISA reactivity ([1]; Dilution 1200, duplicate wells) | ELISA reactivity ([1]; Dilution 3600, duplicate wells) | ELISA reactivity [1, 3] | competition ELISA reactivity (in words) [2] |
| --- | --- | --- | --- | --- | --- |
| 2-(2,5-dioxo-2,5-dihydro-1H-pyrrol-1-yl)-N-(2-((3-(1-(2-(9-hydroxy-2-methyl-4-oxo-6,7,8,9-tetrahydro-4H-pyrido[1,2-a]pyrimidin-3-yl)ethyl)piperidin-4-yl)benzo[d]isoxazol-6-yl)oxy)ethyl)acetamide-keyhole limpet hemocyanin-conjugate [Example 5] | 3.2897 and 3.1103 | 1.4605 and 1.4817 | 0.4617 and 0.4159 | 0.1149 and 0.1127 | – |
| Cc1nc2n(c(=O)c1CCN1CCC(c3noc4cc(OCCN)ccc34)CC1)CCCC2O (stereo not shown) [Example 1, 3-(2-(4-(6-(2-aminoethoxy)benzo[d]isoxazol-3-yl)piperidin-1-yl)ethyl)-9-hydroxy-2-methyl-6,7,8,9-tetrahydro-4H-pyrido[1,2-a]pyrimidin-4-one] | 3.2562 and 3.1217 | 1.3591 and 1.2607 | 0.3745 and 0.3281 | 0.0918 and 0.0879 | – |
| Cc1nc2n(c(=O)c1CCN1CCC(c3noc4cc(F)ccc34)CC1)CCCC2O (stereo not shown) [paliperidone] | – | – | – | – | reactivity |
| Cc1nc2n(c(=O)c1CCN1CCC(c3noc4cc(F)ccc34)CC1)CCCC2 [risperidone] | – | – | – | – | reactivity |
